Literature values as cited in patent publication US20230405018A1, “FLUMAZENIL FORMULATIONS FOR SUBCUTANEOUS INJECTION AND METHODS OF TREATMENT USING GABA RECEPTOR MODULATORS” (Bexson Biomedical, Inc., priority 2020, published 2023).
Where two headings read alike, the source gives them in different places.

Tests used:
[1] = tested on: benzodiazepine withdrawal symptoms
[2] = acidic USP flumazenil preparations (pH ~4)
[3] = reported

| Systemic availability after first pass hepatic metabolism (in vivo) | Oral bioavailability (in vivo, po) | Half-life (rapid metabolism in the liver) [min] | Solubility / concentration of flumazenil in USP preparations [2] [mg/mL] | Solubility of SBE-β-CD [3] [g/mL] | Compound | Effect on withdrawal, craving and cessation ([1]; bolus administrations in conjunction with benzodiazepine tapering) | Effect on withdrawal symptoms ([1]; continuous 2 mg/24 h over 96 h by IV with oxazepam tapering) | Effect on withdrawal symptoms ([1]; ~1-2 mg bolus over several hours, high dose benzodiazepine patients abstinent at least three weeks) |
| --- | --- | --- | --- | --- | --- | --- | --- | --- |
| less than 25% | extremely limited and poor | 4 to 11 | ~0.1 |  | CCOC(=O)c1ncn2c1CN(C)C(=O)c1cc(F)ccc1-2 [flumazenil, ethyl 8-fluoro-5,6-dihydro-5-methyl-6-oxo-4H-imidazo[1,5-a][1,4] benzodiazepine-3-carboxylate] | reduction of benzodiazepine withdrawal symptoms, reduced craving, and increased completion of cessation of benzodiazepines without relapse | drastically curtail withdrawal symptoms | reduce withdrawal symptoms |
|  |  |  |  | 0.6 | sulfobutyl-ether-beta-cyclodextrin [SBE-β-CD] |  |  |  |
